Experimental data from patent US6677309B1, “Anti-cancer drug aldehyde conjugate drugs with enhanced cytotoxicity compounds, compositions and methods” (University Technology Corporation, priority 1997, dated 2004).
Where two headings read alike, the source gives them in different places.

How the values were obtained:
[1] = test system: LNCaP; experiment: Prostate cancer cell cytotoxicity, crystal violet assay, LNCaP; format: cell-based, human
Description: (§1) Toxicity to the three prostate cancer cell lines, LNCaP, DU-145, and PC-3 were measured in two different media, RPMI-1640 and DMEM (Dulbecco's Modified Eagle Medium), both supplemented with 10% fetal bovine serum.
(§2) Cell lines were maintained in vitro in RPMI 1640 media or DMEM, each supplemented with 10% fetal bovine serum, 2 mM L-glutamine, 10 mM HEPES buffer, penicillin (100 units/mL) and streptomycin (100 μg/mL).
(§3) Cells were dissociated with trypsin/EDTA, counted, and suspended in growth media (RPMI or DMEM) to a concentration of 5.6×10^3 cells/mL. Cell suspensions were dispensed in 180 μL aliquots into 96-well tissue culture plates. […] Each 100× solution was diluted 10× in growth media (RPMI or DMEM), and a 20 μL aliquot of the resulting 10× solution was immediately (<10s) added to-the appropriate lane. Additionally, one lane was treated with 20 μL of 10% DMSO in growth media (no drug) and one lane was treated with 200 μL of 1.5 M Tris buffer (no cells). The cells were incubated with the drugs for 3 h at 37° C. The drug solutions were then removed and replaced with 200 μL of fresh media. The cells were incubated for 4 days (7 days for PC-3 cells in DMEM) at 37° C. in a humidified atmosphere of 5% CO2 and 95% air. Cell survival was determined using a crystal violet assay as described earlier (Fenick, D. J. et al (1997) J. Med. Chem. 40: 2452-2461).

[2] = test system: MCF-7 cells; experiment: In vitro cytotoxicity, colony formation by crystal violet assay, MCF-7
Description: (§4) The term IC50 as used herein refers to the concentration of drug which inhibits cell growth by 50%, i.e., 50% of cells are viable at the IC50 concentration relative to a no-drug control.
(§5) Cells were incubated with drug for 3 h in RPMI (Roswell Park Memorial Institute) 1640 media containing 10% fetal bovine serum and 1% DMSO. Plates, were developed using the crystal violet assay. […] In all cases percent survival was determined by the extent of colony formation six days after drug treatment.
(§6) All tissue culture materials were obtained from Gibco Life Technologies (Grand Island, N.Y.) unless otherwise stated. MCF-7 breast cancer cells were obtained from American Type Culture Collection (Rockville, Md.). […] Both cell lines were maintained in vitro by serial culture in phenol red-free RPMI Media 1640 supplemented with 10% fetal bovine serum (Gemini Bio-Products, Calbasas, Calif.), L-glutamine (2 mM), HEPES buffer (10 mM), penicillin (100 units/mL), and streptomycin (100 μg/mL). […] Cells were maintained at 37° C. in a humidified atmosphere of 5% CO2 and 95% air.
(§7) Cells were dissociated with trypsin-EDTA, counted, and suspended in growth media to a concentration of 5×10^3 cells/mL. Cell suspensions were dispensed in 200 μL aliquots into 96-well tissue culture plates. Plates were then incubated for 24 h at 37° C. in a humidified atmosphere of 5% CO2 and 95% air. The media was replaced with 180 μL of growth media prior to addition of the cytotoxic agents.
(§8) Concentrations were then corrected by measuring the solution absorbance at 480 nm (ε=11,500/mole anthracycline). The solutions were then serially diluted in DMSO to give a series of 100× working concentration solutions. For each concentration, the 100× solution was diluted 1:10 in serum-free RPMI Media 1640. 20 μL of the resulting […] solution was immediately added to the appropriate lane. Additionally, one lane was treated with 20 μL of 10% DMSO in serum-free RPMI (no drug) and one lane replaced with 200 μL of 1.5 M Tris buffer (no cells). The cells were incubated at 37° C. for 3 h. The drug solutions were removed and 200 μL of fresh growth media was added to each well.
(§9) The extent of colony formation was determined by use of a crystal violet staining assay (Gilles, R. J. et al. (1986), “Determination of cell number in monolayer cultures,” Anal. Biochem. 159:109-113; Reile, H. et al. (1990), “Computerized determination of growth kinetic curves and doubling times from cells in microcultures,” Anal. Biochem. 187:262-267). […] The cells were then stained with 75 μL of 0.1% crystal violet in deionized water for 30 min. […] The plates were blotted dry and 200 μL of 70% ethanol in water was added to each well to solublize the dye. The plates were stored at 4° C. until solubilization was complete (about 4 h). The optical density of each well was measured on an ELISA plate reader at 588 nm. Relative colony sizes were determined by comparison of the drug treated lanes to the control lanes.
(§10) MCF-7 breast cancer cells were obtained from American Type Culture Collection (Rockville, Md.). MCF-7/ADR adriamycin resistant breast cancer cells were a gift of Dr. William W. Wells (Michigan State University). Both cell lines were maintained in vitro by serial culture in phenol red-free RPMI Media 1640 supplemented with 10% fetal bovine serum (Gemini Bio-Products, Calbasas, Calif.), L-glutamine (2 mM), HEPES buffer ([…]), penicillin (100 units/mL), and streptomycin (100 μg/mL). […] Cells were maintained at 37° C. in a humidified atmosphere of 5% CO2 and 95% air.
1640 media containing 10% fetal bovine serum. The resulting 90% media/10% DMSO solutions (v/v) were incubated at 37° C. for 6h.

[3] = test system: DU-145; experiment: Prostate cancer cell cytotoxicity, crystal violet assay, DU-145; format: cell-based, human
Description: as §1, §2, §3

[4] = test system: MCF-7/ADR cells; experiment: In vitro cytotoxicity, colony formation by crystal violet assay, MCF-7/ADR
Description: as §4, §5, §6, §7, §8, §9, §10
These were then diluted 10× with autoclaved Millipore water.

[5] = test system: PC-3; experiment: Prostate cancer cell cytotoxicity, crystal violet assay, PC-3; format: cell-based, human
Description: as §1, §2, §3

[6] = test system: self-complementary DNA octamer (GC)4; experiment: Drug-DNA conjugate formation with (GC)4, HPLC; format: biochemical; conditions: 5 h
Description: The amount of available formaldehyde was 99 μM (3×33 μM). […] The experiment was also run at 25° C. in pH 6.0 phosphate buffer containing 4% DMSO. […] The ratio for conjugate 1 was assumed to be 24:1, based upon the value for conjugate 2. […] Under these circumstances, the conjugate 1 area was estimated based upon its 480 nm absorbance, assuming the 24:1 ratio for A260:A480.
The formation of drug-DNA conjugates at 25° C. was monitored by HPLC (Method II). […] The experiment was also run in pH 6.0 phosphate buffer containing 4% DMSO.

[7] = Homo sapiens, LNCaP, DMEM with 10% fetal bovine serum, 3 h drug, 4 days growth, read-out: IC50 Values, LNCaP/DMEM (converted)
[8] = Homo sapiens, LNCaP, RPMI-1640 with 10% fetal bovine serum, 3 h drug, 4 days growth, read-out: IC50 Values, LNCaP/RPMI-1640 (converted)
[9] = Homo sapiens, MCF7, read-out: IC50 Values, MCF-7
[10] = Homo sapiens, DU-145, DMEM with 10% fetal bovine serum, 3 h drug, 4 days growth, read-out: IC50 Values, DU-145/DMEM (converted)
[11] = Homo sapiens, NCI/ADR-RES, read-out: IC50 Values, MCF-7-ADR
[12] = Homo sapiens, PC-3, DMEM with 10% fetal bovine serum, 3 h drug, 7 days growth, read-out: IC50 Values, PC-3/DMEM (converted)
[13] = Homo sapiens, PC-3, RPMI-1640 with 10% fetal bovine serum, 3 h drug, 4 days growth, read-out: IC50 Values, PC-3/RPMI-1640 (converted)

Question: COc1cccc2c1C(=O)c1c(O)c3c(c(O)c1C2=O)C[C@@](O)(C(=O)CO)C[C@@H]3O[C@H]1C[C@H]2[C@@H](OCN3CN2CO[C@H]2[C@H](C)O[C@@H](O[C@H]4C[C@](O)(C(=O)CO)Cc5c(O)c6c(c(O)c54)C(=O)c4c(OC)cccc4C6=O)C[C@@H]23)[C@H](C)O1 [EPIF] was tested. Which IC50 ([1]; DMEM with 10% fetal bovine serum, 3 h drug, 4 days growth, read-out: IC50 Values, LNCaP/DMEM (converted)) did it give?
Answer: 1 nM

Question: What about the IC50 ([1]; RPMI-1640 with 10% fetal bovine serum, 3 h drug, 4 days growth, read-out: IC50 Values, LNCaP/RPMI-1640 (converted)) of the same compound?
Answer: 3.5 nM

Question: And the IC50 ([2]; read-out: IC50 Values, MCF-7, Media/Serum, drug preincubated 6 h at 37° C. in 10% DMSO/90% RPMI 1640 containing 10% fetal bovine serum)?
Answer: 200 nM

Question: What about the IC50 ([2]; read-out: IC50 Values, MCF-7, 3 h drug incubation in RPMI 1640, 10% fetal bovine serum, 1% DMSO, colony formation six days after treatment, fresh drug solution) of the same compound?
Answer: 32.5 nM

Question: And the IC50 ([3]; DMEM with 10% fetal bovine serum, 3 h drug, 4 days growth, read-out: IC50 Values, DU-145/DMEM (converted))?
Answer: 4 nM

Question: And the IC50 ([3]; RPMI-1640 with 10% fetal bovine serum, 3 h drug, 4 days growth, read-out: IC50 Values, DU-145/RPMI-1640 (converted))?
Answer: 15 nM

Question: What about the IC50 ([4]; read-out: IC50 Values, MCF-7-ADR, EPIF/DMSO, drug stored in DMSO (not dried) for 20 h at ambient temperature before treatment) of the same compound?
Answer: 150 nM

Question: What about the IC50 ([4]; read-out: IC50 Values, MCF-7-ADR, EPIF/H2O, drug preincubated in 90% H2O/10% DMSO at 37° C. for 20 h (equilibrium mixture with intermediates B, C, D)) of the same compound?
Answer: 200 nM

Question: What about the IC50 ([4]; read-out: IC50 Values, MCF-7-ADR, 3 h drug incubation in RPMI 1640, 10% fetal bovine serum, 1% DMSO, colony formation six days after treatment, fresh drug solution) of the same compound?
Answer: 35 nM

Question: What about the IC50 ([4]; read-out: IC50 Values, MCF-7/ADR, Media/Serum, drug preincubated 6 h at 37° C. in 10% DMSO/90% RPMI 1640 containing 10% fetal bovine serum) of the same compound?
Answer: 150 nM

Question: And the IC50 ([5]; DMEM with 10% fetal bovine serum, 3 h drug, 7 days growth, read-out: IC50 Values, PC-3/DMEM (converted))?
Answer: 15 nM

Question: What about the IC50 ([5]; RPMI-1640 with 10% fetal bovine serum, 3 h drug, 4 days growth, read-out: IC50 Values, PC-3/RPMI-1640 (converted)) of the same compound?
Answer: 3.5 nM

Question: COc1cccc2c1C(=O)c1c(O)c3c(c(O)c1C2=O)C[C@@](O)(C(=O)CO)C[C@@H]3O[C@H]1C[C@H](N)[C@@H](O)[C@H](C)O1 [EPI, epidoxorubicin, reference compound] was tested. Which IC50 [1, 7] did it give?
Answer: 20 nM

Question: What about the IC50 [1, 8] of the same compound?
Answer: 20 nM

Question: What about the IC50 [2, 9] of the same compound?
Answer: 200 nM

Question: And the IC50 ([2]; Homo sapiens, MCF7, read-out: IC50 Values, MCF-7, Media/Serum)?
Answer: > 10000 nM

Question: What about the IC50 [3, 10] of the same compound?
Answer: 40 nM

Question: And the IC50 [4, 11]?
Answer: > 10000 nM

Question: And the “DNA reacted to form drug-DNA conjugates” value ([6]; 33 μM (GC)4, 66 μM epidoxorubicin plus 99 μM formaldehyde, pH 6.0, 4% DMSO)?
Answer: 51%

Question: What about the “DNA reacted to form drug-DNA conjugates” value ([6]; 33 μM (GC)4, 66 μM epidoxorubicin plus 99 μM formaldehyde, pH 7.3, 4% DMSO, 25° C.) of the same compound?
Answer: 75%

Question: And the “DNA reacted to form drug-DNA conjugates” value ([6]; 166 μM (GC)4, 664 μM epidoxorubicin plus 996 μM HCHO, pH 7.3, 4% DMSO, 25° C.)?
Answer: 93%

Question: And the IC50 [5, 12]?
Answer: 60 nM

Question: And the IC50 [5, 13]?
Answer: 30 nM

Question: What does the source list for C=O [formaldehyde, reference compound]?
Answer: IC50 ([2]; Homo sapiens, MCF7, read-out: IC50 value, control experiment, MCF-7): > 200000 nM; IC50 ([4]; Homo sapiens, NCI/ADR-RES, read-out: IC50 value, control experiment, MCF-7/ADR): > 200000 nM

Question: How did the IC50 ([1]; Homo sapiens, LNCaP, read-out: IC50 Values, LNCaP/DMEM) turn out when COc1cccc2c1C(=O)c1c(O)c3c(c(O)c1C2=O)C[C@@](O)(C(C)=O)C[C@@H]3O[C@H]1C[C@H](N)[C@H](O)[C@H](C)O1 [DAUN, daunorubicin, reference compound] was run?
Answer: 8 nM

Question: What about the IC50 ([1]; Homo sapiens, LNCaP, read-out: IC50 Values, LNCaP/RPMI-1640) of the same compound?
Answer: 20 nM

Question: What about the IC50 [2, 9] of the same compound?
Answer: 60 nM

Question: And the IC50 ([3]; Homo sapiens, DU-145, read-out: IC50 Values, DU-145/DMEM)?
Answer: 25 nM

Question: What about the IC50 ([3]; Homo sapiens, DU-145, read-out: IC50 Values, DU-145/RPMI-1640) of the same compound?
Answer: 100 nM

Question: What about the IC50 [4, 11] of the same compound?
Answer: 2000 nM

Question: What about the IC50 ([5]; Homo sapiens, PC-3, read-out: IC50 Values, PC-3/DMEM) of the same compound?
Answer: 20 nM

Question: And the IC50 ([5]; Homo sapiens, PC-3, read-out: IC50 Values, PC-3/RPMI-1640)?
Answer: 20 nM

Question: Which IC50 [1, 7] does the source give for COc1cccc2c1C(=O)c1c(O)c3c(c(O)c1C2=O)C[C@@](O)(C(=O)CO)C[C@@H]3O[C@H]1C[C@H](N)[C@H](O)[C@H](C)O1 [DOX, doxorubicin, reference compound] here?
Answer: 15 nM

Question: And the IC50 [1, 8]?
Answer: 20 nM

Question: What about the IC50 [3, 10] of the same compound?
Answer: 60 nM

Question: And the IC50 [4, 11]?
Answer: 10000 nM

Question: And the IC50 [5, 12]?
Answer: 60 nM

Question: What about the IC50 [5, 13] of the same compound?
Answer: 30 nM
